# Where two headings read alike, the source gives them in different places.
# What was measured:
# Aspergillus niger = experiment: 95% growth inhibitory concentration, Aspergillus niger; assay type: cell-based, Aspergillus niger IFO 9455; settings: IFO9455, 72 h, read-out: 95% Growth inhibitory concentration, Aspergillus niger
# Method: (§1) Strains for use in test: Candida albicans, IFO 1594 Aspergillus niger, IFO 9455
# (§2) Culture medium: Liquid Sabouraud's medium (maltose 40 g, proteose peptone 10 g, distilled water 1000 ml)
# (§3) Positive control: amphotericin B (Sigma) 5-fluorocytosine (Wako Junyaku, Japan)
# (§4) A sample was diluted with culture medium to vary concentrations and poured into test tubes each to contain 5 ml, and a platinum loop of spores was inoculated in each tube. After shaken cultivation at 37° C. for 3 days, formalin (0.5 ml) was added and well mixed. The mixture was centrifuged at 3500 rpm for 10 minutes to collect fungi, which were in turn dewatered on a filter paper, dried at 100° C. for one hour and weighed. The growth rate was determined by the following equation [formula] 95% growth-inhibitory concentration (up to 5% growth rate): a mean value of sample concentrations producing 95% growth inhibitory effects.
# Candida albicans = experiment: 95% growth inhibitory concentration, Candida albicans; assay type: cell-based, Candida albicans IFO 1594; settings: read-out: 95% Growth inhibitory concentration, Candida albicans
# Method: as §1, §2, §3
# A culture resulting from shaken cultivation at 37° C. overnight was diluted 100-fold with the culture medium and used as seed culture.
# A sample was diluted with the culture medium to vary concentrations and poured into test tubes each to contain 5 ml, and the seed culture (100 μl) was inoculated. After cultivation with shaking at 37° C. for 18 hours, formalin (0.5 ml) was added, thoroughly mixed, and diluted 10-fold with the culture medium. The resultant liquor was measured for absorbancy at 660 nm. The growth rate (%) was determined according to the equation [formula]
# as §4
# platelet aggregation = settings: literature; cited from earlier work
# fungi = settings: Japanese Patent Publication No. 263121/1987; cited from earlier work
# [1] = one week toxicity test, intraperitoneal; assay type: in vivo; settings: 5 male ICR mice of 5 weeks age, dose not given
# [2] = Aspergillus niger IFO 9455, liquid Sabouraud's medium, 37° C., 3 days, dry weight, up to 5% growth rate, mean value
# [3] = IFO1594, Candida albicans IFO 1594, liquid Sabouraud's medium, 37° C., 18 hours, up to 5% growth rate, mean value
SMILES,IC95 (Aspergillus niger; [2]) [µg/mL],IC95 (Candida albicans; [3]) [µg/mL],other results
CCOC(=O)CCCSSC=CC[S+]([O-])CCCC(=O)OCC (stereo not shown) [Compound 10],80.4,–,–
C=CCS(=O)(=O)CC=CSSCc1ccccc1 [Compound 16],42.2,–,–
"Nc1nc(=O)[nH]cc1F [5-fluorocytosine, reference compound]",80,20,–
"C[C@@H]1[C@H](O)[C@@H](C)/C=C/C=C/C=C/C=C/C=C/C=C/C=C/[C@H](O[C@@H]2O[C@H](C)[C@@H](O)[C@H](N)[C@@H]2O)C[C@@H]2O[C@](O)(C[C@@H](O)C[C@@H](O)[C@H](O)CC[C@@H](O)C[C@@H](O)CC(=O)O[C@H]1C)C[C@H](O)[C@H]2C(=O)O [Amphotericin B, reference compound]",–,–,"IC95 (Candida albicans; Candida albicans, IFO1594, 18 h): 0.2 µg/mL; IC95 (Aspergillus niger; Aspergillus niger): > 0.8 µg/mL"
C=CCSSC=CC[S+]([O-])CC=C (stereo not shown) [ajoene],–,–,platelet aggregation inhibitory activity (platelet aggregation): demonstrated to have platelet aggregation inhibitory activity; antifungal activity (fungi): has antifungal activity
C=CCSSC=CCS(=O)(=O)CC=C [Compound 1],28.5,5.4,mortality after one week [1]: no mortality was observed
C=CC[S+]([O-])SC=CCS(=O)(=O)CC=C (stereo not shown) [Compound 7],30.8,–,–
C=CCSSSC [methylallyltrisulfide],–,–,platelet aggregation inhibitory activity (platelet aggregation): platelet aggregation inhibitory activity
C=CC[S+]([O-])CC=CSSC (stereo not shown) [Compound 17],49.1,40.7,–
C=CCSSC=CC[S+](C)[O-] (stereo not shown) [Compound 5],57.3,–,–
